In patent US7186544B2, “Agents for promoting fattening of animals and method of promoting fattening” (Fuso Chemical Co., Ltd., priority 1999, dated 2007):

Assays:
Megasphaera elsdenii [1] = assay: Example 14: count of isolated strain in 144-hour culture; format: cell-based
Protocol: (§1) Pigs were acclimated for 1 week, and the contents of their large intestines were taken out. The contents were diluted 5-fold with an anaerobic phosphate buffer (50 mM, pH 6.5), and then filtrated through 4-layered gauze. One mL of the resulting filtrate was inoculated on a PYF medium (100 mL) with 1 w/v % sodium gluconate added thereto, and incubated in an anaerobic condition at 39° C.
(§2) During incubation, 5 mL of a sterilized 10 w/v % aqueous solution of sodium gluconate were put into the medium at intervals of 48 hours.
(§3) The culture without sodium gluconate and the culture with sodium gluconate added thereto were sampled on 0, 8, 24, 48, 96 and 144 hours in a germ-free condition, and the samples were diluted to 10^−5. 0.05 mL of each dilution were inoculated on BL agar media (manufactured by Nissui), and anaerobically incubated at 37° C. for 48 hours. The number of colonies of anaerobic microorganisms having grown in agar plates was counted (Table 7).
(§4) At the same time, according to the properties of the colonies thus grown, strains having grown only on the agar plate inoculated with the 144-hour sample of sodium gluconate-added culture were isolated, and they were counted and identified (Table 8).

Mitsuokella multiacidus [2] = assay: as above; format: cell-based
Protocol: as §1, §2, §3, §4

[3] = test system: contents of pig large intestines; assay: Example 12: static culture of pig large intestine contents, acids and ammonia; format: cell-based, pigs
Protocol: Three pigs were acclimated for 1 week, and the contents of their large intestines were taken out. The contents were diluted 5-fold with an anaerobic phosphate buffer (50 mM, pH 6.5), and then filtrated through 4-layered gauze. 25 mL of the resulting filtrate was put into serum bottles of 120 mL volume, and the gas phase therein was purged with a mixed gas of nitrogen/carbon dioxide (80/20). The bottles were sealed with butyl rubber stoppers and aluminum seals, and left for static culture at 39° C. for 24 hours (n=3).
Prior to putting the intestinal filtrate into the serum bottles, 1 w/v % glucose (positive control) and 1 w/v % sodium gluconate were put in the bottles, except for an additive-free control (negative control).
After the intestinal filtrate was thus cultivated, 1 mL of 6 N hydrochloric acid was added thereto to stop fermentation. The resulting cultures were analyzed as follows:
The cultures were pre-treated according to the Ushida and Sakata's conditions (Anim. Sci. Technol., 69, 571–575, […]), and then were analyzed on the concentration of short-chain fatty acids, succinic acid and lactic acid therein by HPLC and the concentration of ammonia therein by the indophenol method (Weatherburn, Analytic Chem., 39, 971–974, 1967). Subtracting the concentration before cultivation from that after cultivation gives the amount (mM) generated through fermentation.

[4] = test system: new born broiler chicks (Chunky); assay: Test Example 3: feeding / drinking water test in broiler chicks, 8 weeks; format: in vivo, chickens; settings: 0.5% in feed and 0.14% in drinking water vs chicks not having taken sodium gluconate
Protocol: The feeds of Example 10 and Comparative Example 4 and the drinking water prepared in Example 11 were fed to groups of new born broiler chicks (Chunky), each group being composed of 50 chicks (25 male chicks and 25 female chicks), continuously for 8 weeks. At the start of the feeding test, on two weeks, 4 weeks and 6 weeks after the start of the test, and at the end of the test, that is, five times in all, the chicks were weighed individually, and an increase in the body weight was calculated for every group. In each group, checked was the feed intake during the period between the days on which the body weight was measured, and the feed conversion ratio was calculated from the overall body weight increase and the overall feed intake.

Megasphaera elsdenii [5] = assay: Example 15: short-chain fatty acid production by isolated strain; format: cell-based
Protocol: (§5) The strains Megasphaera elsdenii and Mitsuokella multiacidus having grown in Example 14 were anaerobically incubated in PYF media (100 mL) with 1% w/v sodium gluconate added thereto, at 39° C. for 24 hours. The cultures were analyzed on the concentration of the short-chain fatty acids (mM) therein in the same manner as in Example 12.

Mitsuokella multiacidus [6] = assay: as above; format: cell-based
Protocol: as §5

[7] = test system: contents of pig large intestines; assay: Example 13: fermentation gas generated in culture of pig large intestine contents; format: cell-based, pigs
Protocol: The amount of fermentation gas generated in the cultivation of Example 12 was measured by putting a glass syringe equipped with an injection needle into a head space of the serum bottle, sucking the gas until normal pressure is reached and measuring the sucked gas by a syringe scale.
The composition of the gas was analyzed for carbon dioxide, methane, hydrogen and hydrogen sulfide by TCD and FPD gas chromatography (Ushida, et al.; Jpn. J. Zootech. Sci., 53, 412–416, 1982, and Anim. Sci. Technol., 69, 571–575, 1998).

piglets = assay: Test Example 4: feeding test in piglets, 8 weeks, sodium gluconate dose series; format: in vivo, pigs; settings: for Body Weight Increase ± S.D. / Feed Conversion Ratio ± S.D.: piglets about 20 kg, 8 weeks; for Body Weight Increase (index %) / Feed Conversion Ratio (index %): control with no additive = 100
Description: To a feed for latter artificial milk suckling-stage piglets (manufactured by Nippon Kagaku Shiryo Kyokai) and to a feed for raising piglets (manufactured by Nippon Kagaku Shiryo Kyokai), added were 0.05, 0.1, 0.25, 0.5 and 1.0%, relative to the weight of the feeds, of sodium gluconate.
The above-mentioned feeds were fed to groups of piglets (body weight: about 20 kg), each group being composed of 4 piglets (2 male piglets and 2 female piglets), continuously for 8 weeks (the feed for latter artificial milk for the former 2 weeks and the feed for raising piglets for the latter 6 weeks). During the period of the feeding test, each of the piglets was weighed every week, and an increase in the body weight was calculated for every group. In each group, checked was the feed intake during the period between the days on which the body weight was measured, and the feed conversion ratio was calculated.
This test was repeated 10 times for the group not having taken sodium gluconate and the group having taken 0.5% sodium gluconate, but 5 times for the other groups having taken sodium gluconate in different concentrations. The obtained body weight increases and the feed conversion ratios were averaged for every group.

anaerobic microorganisms = assay: Example 14: number of colonies of anaerobic microorganisms in PYF culture of pig intestinal filtrate; format: cell-based, pigs
Protocol: as §1, §2, §3

[8] = 144-hour sample of sodium gluconate-added culture
[9] = after cultivation, 1 w/v % additive, 39° C., 24 hours, n=3
[10] = index based on the data before cultivation of 100
[11] = PYF medium with 1% w/v sodium gluconate, 39° C., 24 hours
[12] = sodium gluconate added minus control with no additive
[13] = cultivation of Example 12, 1 w/v % additive, n=3
[14] = 0.05% added to feed, 5 test cycles
[15] = 0.1% added to feed, 5 test cycles
[16] = 0.25% added to feed, 5 test cycles
[17] = 0.5% added to feed, 10 test cycles
[18] = 1.0% added to feed, 5 test cycles

O=C([O-])[C@H](O)[C@@H](O)[C@H](O)[C@H](O)CO.[Na+] [Sodium Gluconate, sodium gluconate]
number of Megasphaera elsdenii (Megasphaera elsdenii [1]; [8]): 6.4 logarithmic number of the cells in 1 g of culture
Megasphaera elsdenii number (Megasphaera elsdenii [1]; in words): observed to increase
number of Mitsuokella multiacidus (Mitsuokella multiacidus [2]; [8]): 7.2 logarithmic number of the cells in 1 g of culture
Mitsuokella multiacidus number (Mitsuokella multiacidus [2]; in words): observed to increase
Acetic Acid [3, 9]: 161.90 mM
Ammonia [3, 9]: 5.79 mM
Butyric Acid [3, 9]: 70.36 mM
Lactic Acid [3, 9]: 0 mM
Propionic Acid [3, 9]: 103.25 mM
Succinic Acid [3, 9]: 0 mM
lactic acid, succinic acid and ammonia in the cultures ([3]; in words): greatly reduce
concentration of acetic acid, propionic acid and butyric acid in the cultures ([3]; in words, compared with cultures without sodium gluconate): greatly increased
Acetic Acid (index) [3, 10]: (404)
Ammonia (index) [3, 10]: (74)
Butyric Acid (index) [3, 10]: (1305)
Lactic Acid (index) [3, 10]: (0)
Propionic Acid (index) [3, 10]: (941)
Succinic Acid (index) [3, 10]: (0)
feed efficiency improved by [4]: 6%
Acetic Acid (Megasphaera elsdenii [5]; [11]): 8.7 mM
Butyric Acid (Megasphaera elsdenii [5]; [11]): 4.9 mM
Propionic Acid (Megasphaera elsdenii [5]; [11]): 0.8 mM
short-chain fatty acids produced by Megasphaera elsdenii utilizing sodium gluconate (Megasphaera elsdenii [5]; in words): produced a lot of acetic acid and butyric acid
Acetic Acid, Difference (Megasphaera elsdenii [5]; [12]): 2.9 mM
Butyric Acid, Difference (Megasphaera elsdenii [5]; [12]): 3.5 mM
Propionic Acid, Difference (Megasphaera elsdenii [5]; [12]): -0.8 mM
Acetic Acid (Mitsuokella multiacidus [6]; [11]): 9.9 mM
Butyric Acid (Mitsuokella multiacidus [6]; [11]): 1.0 mM
Propionic Acid (Mitsuokella multiacidus [6]; [11]): 43.1 mM
short-chain fatty acids produced by Mitsuokella multiacidus utilizing sodium gluconate (Mitsuokella multiacidus [6]; in words): produced a lot of acetic acid and propionic acid
Acetic Acid, Difference (Mitsuokella multiacidus [6]; [12]): 7.0 mM
Butyric Acid, Difference (Mitsuokella multiacidus [6]; [12]): 0.7 mM
Propionic Acid, Difference (Mitsuokella multiacidus [6]; [12]): 36.1 mM
Carbon Dioxide [7, 13]: 4330 µL/g
Hydrogen [7, 13]: 211.99 µL/g
Hydrogen Sulfide [7, 13]: 0.09 µL/g
Methane [7, 13]: 30 µL/g
Total Gas [7, 13]: 6880 µL/g
hydrogen sulfide in the cultures ([7]; in words, compared with cultures with no additives): greatly reduced
Body Weight Increase ± S.D. (piglets; [14]): 39.96 ± 5.83 kg
Feed Conversion Ratio ± S.D. (piglets; [14]): 2.62 ± 0.15
Body Weight Increase (index %) (piglets; 0.05% added to feed): (104) %
Feed Conversion Ratio (index %) (piglets; 0.05% added to feed): (97) %
Body Weight Increase ± S.D. (piglets; [15]): 40.92 ± 4.49 kg
Feed Conversion Ratio ± S.D. (piglets; [15]): 2.58 ± 0.11
Body Weight Increase (index %) (piglets; 0.1% added to feed): (106) %
Feed Conversion Ratio (index %) (piglets; 0.1% added to feed): (96) %
Body Weight Increase ± S.D. (piglets; [16]): 41.26 ± 3.44 kg
Feed Conversion Ratio ± S.D. (piglets; [16]): 2.55 ± 0.17
Body Weight Increase (index %) (piglets; 0.25% added to feed): (107) %
Feed Conversion Ratio (index %) (piglets; 0.25% added to feed): (94) %
Body Weight Increase ± S.D. (piglets; [17]): 40.43 ± 4.40 kg
Feed Conversion Ratio ± S.D. (piglets; [17]): 2.63 ± 0.12
Body Weight Increase (index %) (piglets; 0.5% added to feed): (105) %
Feed Conversion Ratio (index %) (piglets; 0.5% added to feed): (97) %
Body Weight Increase ± S.D. (piglets; [18]): 39.28 ± 2.58 kg
Feed Conversion Ratio ± S.D. (piglets; [18]): 2.74 ± 0.05
Body Weight Increase (index %) (piglets; 1.0% added to feed): (102) %
Feed Conversion Ratio (index %) (piglets; 1.0% added to feed): (101) %
number of anaerobic microorganisms (anaerobic microorganisms; 0 hrs after start of incubation, 1 w/v % in PYF medium, 39° C.): <6.3 logarithmic number of the cells in 1 g of culture
number of anaerobic microorganisms (anaerobic microorganisms; 8 hrs after start of incubation): 8.9 logarithmic number of the cells in 1 g of culture
number of anaerobic microorganisms (anaerobic microorganisms; 24 hrs after start of incubation): 10.7 logarithmic number of the cells in 1 g of culture
number of anaerobic microorganisms (anaerobic microorganisms; 48 hrs after start of incubation): 8.7 logarithmic number of the cells in 1 g of culture
number of anaerobic microorganisms (anaerobic microorganisms; 96 hrs after start of incubation): 10.4 logarithmic number of the cells in 1 g of culture
number of anaerobic microorganisms (anaerobic microorganisms; 144 hrs after start of incubation): 7.7 logarithmic number of the cells in 1 g of culture
total number of anaerobic microorganisms (anaerobic microorganisms; in words): increased
